Values after ≈ are worked out from the molar mass of the structure shown. Bridge positions count the residues as written; N and C are the ends. Square brackets hold non-standard residues; d marks the D form. Peptide text beside a SMILES is read from it. * marks the point of attachment. Dab(CH2SO3H) = N[C@@H](CCNCS(=O)(=O)O)C(=O)O; Heptanoyl(6-Me) = CC(C)CCCCC(=O)*; Sulfomethyl = O=S(=O)(O)C*; Nonanoyl = CCCCCCCCC(=O)*; X1 = CC[C@H](C)CCCCC(=O)*; dDab = NCC[C@@H](N)C(=O)O; Heptanoyl = CCCCCCC(=O)*; Orn = NCCC[C@H](N)C(=O)O; Dab = NCC[C@H](N)C(=O)O; Dap = NC[C@H](N)C(=O)O
Tests used:
Assay type in all cases: cell-based
[1] = Nephrotoxicity assay: in vitro cytotoxicity of HK-2 cells by CCK-8 assay; settings: human, HK-2 cells (human renal), 72 h incubation with drug-containing medium
How it was run: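 HK-2 human renal cells in RPMI-1640 with 10% FBS were exposed to compounds at final 12.5–500 µg/mL for 72 h, then CCK-8 for 3 h and OD450 read. Viability was normalised to drug-free wells; IC50 came from logarithmic regression over three repeats, with polymyxin B as positive drug.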

[2] = system: Escherichia coli ATCC BAA-2340 (KPC); settings: ATCC BAA-2340
How it was run: (§1)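 Broth microdilution per CLSI in Mueller-Hinton broth. Compounds were tested at final concentrations of 64 to 0.03 mg/L (two-fold steps) against an inoculum of (2-4) × 10^5 CFU/mL, with incubation at 35-37°C for 16-20 h to give the MIC.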

[3] = system: Klebsiella pneumoniae ATCC BAA-1705 (KPC); settings: ATCC BAA-1705
How it was run: as §1

[4] = system: Pseudomonas aeruginosa ATCC 27853; settings: ATCC 27853
How it was run: as §1

[5] = system: Acinetobacter baumannii ABA19-1; settings: ABA19-1
How it was run: as §1

[6] = system: Pseudomonas aeruginosa PAE19-3; settings: PAE19-3
How it was run: as §1

[7] = system: Acinetobacter baumannii NCTC 13304 (OXA-27); settings: NCTC 13304
How it was run: as §1

[8] = system: Escherichia coli ATCC BAA-2523; settings: ATCC BAA-2523
How it was run: as §1

[9] = system: Klebsiella pneumoniae KPN+19-15; settings: KPN+19-15
How it was run: as §1

Row | SMILES | IC50 at 72 h [1] [µg/mL] | MIC [2] [µg/mL] | MIC [3] [µg/mL] | MIC [4] [µg/mL] | MIC [5] [µg/mL] | MIC [6] [µg/mL] | MIC [7] [µg/mL] | MIC [8] [µg/mL] | MIC [9] [µg/mL]
1 | CC(C)CCCCC(=O)N[C@@H](CCN)C(=O)N[C@H](C(=O)N[C@H](CO)C(=O)N[C@H]1CCNC(=O)[C@H]([C@@H](C)O)NC(=O)[C@H](CCN)NC(=O)[C@H](CCN)NC(=O)[C@H]([C@@H](C)O)NC(=O)[C@@H](Cc2ccccc2)NC(=O)[C@H](CCN)NC1=O)[C@@H](C)OCS(=O)(=O)O [Compound 104, 6-methylheptanoyl-Dab-Thr(CH2SO3H)-D-Ser-ring(4-10)[Dab-Dab-D-Phe-Thr-Dab-Dab-Thr]] ({Heptanoyl(6-Me)}-[Dab]T(Sulfomethyl)[dS][Dab][Dab][dF]T[Dab][Dab]T; lactam 4-C) | > 500 | 0.03 (≈ 0.0238 µM) | 0.125 (≈ 0.0993 µM) | 0.25 (≈ 0.199 µM) | 0.06 (≈ 0.0477 µM) | 0.25 (≈ 0.199 µM) | 0.06 (≈ 0.0477 µM) | 0.03 (≈ 0.0238 µM) | 0.125 (≈ 0.0993 µM)
2 | CC[C@H](C)CCCCC(=O)N[C@@H](CCN)C(=O)N[C@H](C(=O)N[C@H](CO)C(=O)N[C@H]1CCNC(=O)[C@H]([C@@H](C)O)NC(=O)[C@H](CCN)NC(=O)[C@H](CCN)NC(=O)[C@H]([C@@H](C)O)NC(=O)[C@@H](Cc2ccccc2)NC(=O)[C@H](CCCN)NC1=O)[C@@H](C)O [Compound 66, (S)-6-methyloctanoyl-Dab-Thr-D-Ser-ring(4-10)[Dab-Orn-D-Phe-Thr-Dab-Dab-Thr]] (X1-[Dab]T[dS][Dab][Orn][dF]T[Dab][Dab]T; lactam 4-C) | > 500 | 0.125 (≈ 0.105 µM) | 0.25 (≈ 0.21 µM) | 64 (≈ 53.7 µM) | 0.25 (≈ 0.21 µM) | 4 (≈ 3.35 µM) | 0.25 (≈ 0.21 µM) | 0.125 (≈ 0.105 µM) | 0.5 (≈ 0.419 µM)
3 | CC(C)CCCCC(=O)N[C@@H](CCN)C(=O)N[C@H](C(=O)N[C@@H](CN)C(=O)N[C@H]1CCNC(=O)[C@H]([C@@H](C)O)NC(=O)[C@H](CCN)NC(=O)[C@H](CCN)NC(=O)[C@H]([C@@H](C)O)NC(=O)[C@@H](Cc2ccccc2)NC(=O)[C@H](CCNCS(=O)(=O)O)NC1=O)[C@@H](C)O [Compound 118, 6-methylheptanoyl-Dab-Thr-Dap-ring(4-10)[Dab-Dab(CH2SO3H)-D-Phe-Thr-Dab-Dab-Thr]] ({Heptanoyl(6-Me)}-[Dab]T[Dap][Dab][Dab(CH2SO3H)][dF]T[Dab][Dab]T; lactam 4-C) | > 500 | 0.06 (≈ 0.0477 µM) | 0.125 (≈ 0.0994 µM) | 0.25 (≈ 0.199 µM) | 0.25 (≈ 0.199 µM) | 0.5 (≈ 0.398 µM) | 0.06 (≈ 0.0477 µM) | 0.06 (≈ 0.0477 µM) | 0.125 (≈ 0.0994 µM)
4 | CC[C@H](C)CCCCC(=O)N[C@@H](CCN)C(=O)N[C@H](C(=O)N[C@@H](CCCN)C(=O)N[C@H]1CCNC(=O)[C@H]([C@@H](C)O)NC(=O)[C@H](CCN)NC(=O)[C@H](CCN)NC(=O)[C@H](CC(C)C)NC(=O)[C@@H](Cc2ccccc2)NC(=O)[C@H](CCN)NC1=O)[C@@H](C)O [Compound 46, (S)-6-methyloctanoyl-Dab-Thr-Orn-ring(4-10)[Dab-Dab-D-Phe-Leu-Dab-Dab-Thr]] (X1-[Dab]T[Orn][Dab][Dab][dF]L[Dab][Dab]T; lactam 4-C) | 287 ± 10.7 (≈ 236 µM) | 0.03 (≈ 0.0246 µM) | ≤0.03 | ≤0.03 | 0.125 (≈ 0.103 µM) | 0.25 (≈ 0.205 µM) | 0.06 (≈ 0.0493 µM) | 0.03 (≈ 0.0246 µM) | ≤0.03
5 | CCCCCCCCC(=O)N[C@@H](CCN)C(=O)N[C@H](C(=O)N[C@H](CO)C(=O)N[C@H]1CCNC(=O)[C@H]([C@@H](C)O)NC(=O)[C@H](CCN)NC(=O)[C@H](CN)NC(=O)[C@H]([C@@H](C)O)NC(=O)[C@@H](Cc2ccccc2)NC(=O)[C@H](CCN)NC1=O)[C@@H](C)O [Compound 75, Nonanoyl-Dab-Thr-D-Ser-ring(4-10)[Dab-Dab-D-Phe-Thr-Dap-Dab-Thr]] (Nonanoyl-[Dab]T[dS][Dab][Dab][dF]T[Dap][Dab]T; lactam 4-C) | 310 ± 19.8 (≈ 266 µM) | 0.06 (≈ 0.0515 µM) | 0.25 (≈ 0.215 µM) | >64 | 0.06 (≈ 0.0515 µM) | 64 (≈ 55 µM) | 0.03 (≈ 0.0258 µM) | 0.06 (≈ 0.0515 µM) | 0.5 (≈ 0.429 µM)
6 | CC[C@H](C)CCCCC(=O)N[C@@H](CCN)C(=O)N[C@H](C(=O)N[C@H](CO)C(=O)N[C@H]1CCNC(=O)[C@H]([C@@H](C)O)NC(=O)[C@H](CN)NC(=O)[C@H](CCN)NC(=O)[C@H]([C@@H](C)O)NC(=O)[C@@H](Cc2ccccc2)NC(=O)[C@H](CCN)NC1=O)[C@@H](C)O [Compound 81, (S)-6-methyloctanoyl-Dab-Thr-D-Ser-ring(4-10)[Dab-Dab-D-Phe-Thr-Dab-Dap-Thr]] (X1-[Dab]T[dS][Dab][Dab][dF]T[Dab][Dap]T; lactam 4-C) | > 500 | 0.03 (≈ 0.0258 µM) | 0.25 (≈ 0.215 µM) | >64 | 0.06 (≈ 0.0515 µM) | 64 (≈ 55 µM) | ≤0.03 | 0.03 (≈ 0.0258 µM) | 0.5 (≈ 0.429 µM)
7 | CCCCCCC(=O)N[C@@H](CCN)C(=O)N[C@H](C(=O)N[C@@H](CN)C(=O)N[C@H]1CCNC(=O)[C@H]([C@@H](C)O)NC(=O)[C@H](CCN)NC(=O)[C@H](CCN)NC(=O)[C@H](CC(C)C)NC(=O)[C@@H](Cc2ccccc2)NC(=O)[C@H](CCN)NC1=O)[C@@H](C)O [Compound 39, Heptanoyl-Dab-Thr-Dap-ring(4-10)[Dab-Dab-D-Phe-Leu-Dab-Dab-Thr]] (Heptanoyl-[Dab]T[Dap][Dab][Dab][dF]L[Dab][Dab]T; lactam 4-C) | 357 ± 8.1 (≈ 307 µM) | 0.03 (≈ 0.0258 µM) | 0.03 (≈ 0.0258 µM) | 0.06 (≈ 0.0517 µM) | 0.03 (≈ 0.0258 µM) | 0.5 (≈ 0.431 µM) | 0.03 (≈ 0.0258 µM) | 0.03 (≈ 0.0258 µM) | 0.03 (≈ 0.0258 µM)
8 | CCCCCCCCC(=O)N[C@@H](CCN)C(=O)N[C@H](C(=O)N[C@H](CCN)C(=O)N[C@H]1CCNC(=O)[C@H]([C@@H](C)O)NC(=O)[C@H](CCN)NC(=O)[C@H](CCN)NC(=O)[C@H]([C@@H](C)O)NC(=O)[C@@H](Cc2ccccc2)NC(=O)[C@H](CCN)NC1=O)[C@@H](C)O [Compound 15, Nonanoyl-Dab-Thr-D-Dab-ring(4-10)[Dab-Dab-D-Phe-Thr-Dab-Dab-Thr]] (Nonanoyl-[Dab]T[dDab][Dab][Dab][dF]T[Dab][Dab]T; lactam 4-C) | 320 ± 31.5 (≈ 269 µM) | 0.06 (≈ 0.0504 µM) | 0.06 (≈ 0.0504 µM) | 2 (≈ 1.68 µM) | 0.06 (≈ 0.0504 µM) | 2 (≈ 1.68 µM) | 0.06 (≈ 0.0504 µM) | 0.06 (≈ 0.0504 µM) | 0.06 (≈ 0.0504 µM)
9 | CC(C)CCCCC(=O)N[C@@H](CCN)C(=O)N[C@H](C(=O)N[C@@H](CCCN)C(=O)N[C@H]1CCNC(=O)[C@H]([C@@H](C)O)NC(=O)[C@H](CCN)NC(=O)[C@H](CCN)NC(=O)[C@H]([C@@H](C)O)NC(=O)[C@@H](Cc2ccccc2)NC(=O)[C@H](CCN)NC1=O)[C@@H](C)O [Compound 27, 6-methylheptanoyl-Dab-Thr-Orn-ring(4-10)[Dab-Dab-D-Phe-Thr-Dab-Dab-Thr]] ({Heptanoyl(6-Me)}-[Dab]T[Orn][Dab][Dab][dF]T[Dab][Dab]T; lactam 4-C) | > 500 | ≤0.03 | ≤0.03 | ≤0.03 | 0.125 (≈ 0.105 µM) | 0.25 (≈ 0.21 µM) | 0.06 (≈ 0.0504 µM) | ≤0.03 | ≤0.03

Reference: patent EP4725957A1, “GROUP OF CYCLIC ALKALINE LIPOPEPTIDE COMPOUNDS, AND PREPARATION METHOD THEREFOR AND USE THEREOF” (Institute of Medicinal Biotechnology, Chinese Academy of …, priority 2023, dated 2024)
